# Assay results from US6525001B1, “Substituted pyrimidine and pyridine herbicides” (Mid-American Commercialization Corporation, priority 1997, dated 2003).
# How the values were obtained:
# Type in all cases: in vivo
# Design in all cases: key: 0 is no effect; 10 is complete control
# [1] = test system: duck salad (Heteranthera limosa); experiment: Test B flood test
# In short: (§1)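 Read-out is a visual response score from 0 (no effect) to 10 (complete control), assigned by comparison with untreated controls. Treatment was applied at the 2-leaf stage, and plants stayed in the greenhouse for twelve to sixteen days before scoring.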
# [2] = test system: smallflower flatsedge (Cyperus difformis); experiment: Test B flood test
# In short: as §1
# [3] = test system: bamyardgrass (Echinochloa crus-galli); experiment: Test B flood test
# In short: as §1
# rice (Oryza sativa) = experiment: Test B flood test
# In short: as §1
# [4] = test system: sugar beet (Beta vulgaris); experiment: Test B pre-/postemergence
# In short: (§2)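 Compounds in a surfactant-containing, non-phytotoxic solvent blend are applied to freshly planted seed (preemergence) and, concurrently, to seedlings of 2 to 18 cm at 1–4 leaves (postemergence). Plants stay in the greenhouse twelve to sixteen days and are then scored visually from 0 (no effect) to 10 (complete control).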
# [5] = test system: momingglory (Ipomoea hederacea); experiment: Test B pre-/postemergence
# In short: as §2
# [6] = test system: pigweed (Amaranthus retroflexus); experiment: Test B pre-/postemergence
# In short: as §2
# [7] = test system: purple nutsedge (Cyperus rotundus); experiment: Test B pre-/postemergence
# In short: as §2
# [8] = test system: bedstraw (Galium aparine); experiment: Test B pre-/postemergence; settings: for Bedstraw plant response rating: Preemergence
# In short: as §2
# [9] = test system: velvetleaf (Abutilon theophrasti); experiment: Test B pre-/postemergence
# In short: as §2
# corn (Zea mays) = experiment: Test B pre-/postemergence; settings: for Corn plant response rating: Preemergence
# In short: as §2
# [10] = test system: blackgrass (Alopecurus myosuroides); experiment: Test B pre-/postemergence; settings: for Blackgrass plant response rating: Preemergence
# In short: as §2
# [11] = test system: broadleaf signalgrass (Brachiaria decumbens); experiment: Test B pre-/postemergence; settings: for B. signalgrass plant response rating: Preemergence
# In short: as §2
# [12] = test system: cocklebur (Xanthium strumarium); experiment: Test B pre-/postemergence; settings: for Cocklebur plant response rating: Preemergence
# In short: as §2
# [13] = test system: crabgrass (Digitaria sanguinalis); experiment: Test B pre-/postemergence; settings: for Crabgrass plant response rating: Preemergence
# In short: as §2
# soybean (Glycine max) = experiment: Test B pre-/postemergence
# In short: as §2
# [14] = test system: wheat (Triticum aestivum); experiment: Test B pre-/postemergence
# In short: as §2
# wild oat (Avena fatua) = experiment: Test B pre-/postemergence
# In short: as §2
# rape (Brassica napus) = experiment: Test B pre-/postemergence
# In short: as §2
# [15] = test system: giant foxtail (Setaria faberii); experiment: Test B pre-/postemergence
# In short: as §2
# [16] = Rate 62 g/ha, Postemergence (flood test)
# [17] = Rate 125 g/ha, Postemergence, flood test
# [18] = Rate 250 g/ha, Postemergence (flood test species)
# [19] = Rate 125 g/ha, Postemergence section (flood test species)
# [20] = Rate 250 g/ha, Postemergence (so in the source)
structure (smiles),measurement,setting,value
Cc1cnc(-c2ccc(Cl)cc2F)nc1Cc1cccc(C#N)c1 [Compound 35],"Plant response rating, Ducksalad",[1]; [16],0
same,"Plant response rating, Ducksalad",[1]; [17],0
same,"Plant response rating, Ducksalad",[1]; [18],1
same,"Plant response rating, S. Flatsedge",[2]; [16],1
same,S. Flatsedge plant response rating,[2]; [19],2
same,"Plant response rating, S. Flatsedge",[2]; [18],2
same,"Plant response rating, Barnyardgrass",[3]; [16],0
same,"Plant response rating, Barnyardgrass",[3]; [17],2
same,"Plant response rating, Barnyardgrass",[3]; [18],2
same,"Plant response rating, Rice",rice (Oryza sativa); [16],0
same,Rice plant response rating,rice (Oryza sativa); [19],1
same,"Plant response rating, Rice",rice (Oryza sativa); [18],1
same,"Plant response rating, Sugarbeets","[4]; Rate 62 g/ha, Postemergence",9
same,Sugarbeets plant response rating,"[4]; Rate 62 g/ha, Preemergence",0
same,Sugarbeets plant response rating,"[4]; Rate 125 g/ha, Postemergence",10
same,"Plant response rating, Sugarbeets","[4]; Rate 125 g/ha, Preemergence",0
same,"Plant response rating, Sugarbeets","[4]; Rate 250 g/ha, Postemergence",10
same,"Plant response rating, Sugarbeets",[4]; [20],1
same,"Plant response rating, Morningglory","[5]; Rate 62 g/ha, Postemergence",1
same,Morningglory plant response rating,"[5]; Rate 62 g/ha, Preemergence",0
same,Morningglory plant response rating,"[5]; Rate 125 g/ha, Postemergence",1
same,Morningglory plant response rating,"[5]; Rate 125 g/ha, Preemergence",0
same,"Plant response rating, Morningglory","[5]; Rate 250 g/ha, Postemergence",1
same,"Plant response rating, Morningglory",[5]; [20],0
same,"Plant response rating, Redroot pigweed","[6]; Rate 62 g/ha, Postemergence",3
same,Redroot pigweed plant response rating,"[6]; Rate 62 g/ha, Preemergence",0
same,Redroot pigweed plant response rating,"[6]; Rate 125 g/ha, Postemergence",3
same,Redroot pigweed plant response rating,"[6]; Rate 125 g/ha, Preemergence",0
same,"Plant response rating, Redroot pigweed","[6]; Rate 250 g/ha, Postemergence",5
same,"Plant response rating, Redroot pigweed",[6]; [20],5
same,"Plant response rating, Nutsedge","[7]; Rate 62 g/ha, Postemergence",0
same,Nutsedge plant response rating,"[7]; Rate 62 g/ha, Preemergence",0
same,Nutsedge plant response rating,"[7]; Rate 125 g/ha, Postemergence",0
same,Nutsedge plant response rating,"[7]; Rate 125 g/ha, Preemergence",0
same,"Plant response rating, Nutsedge","[7]; Rate 250 g/ha, Postemergence",0
same,"Plant response rating, Nutsedge",[7]; [20],0
same,"Plant response rating, Bedstraw","[8]; Rate 62 g/ha, Postemergence",6
same,Bedstraw plant response rating,[8]; Rate 62 g/ha,0
same,"Plant response rating, Bedstraw","[8]; Rate 125 g/ha, Postemergence",6
same,Bedstraw plant response rating,[8]; Rate 125 g/ha,0
same,"Plant response rating, Bedstraw","[8]; Rate 250 g/ha, Postemergence",8
same,"Plant response rating, Bedstraw",[8]; [20],1
same,"Plant response rating, Velvetleaf","[9]; Rate 62 g/ha, Postemergence",1
same,Velvetleaf plant response rating,"[9]; Rate 62 g/ha, Preemergence",0
same,Velvetleaf plant response rating,"[9]; Rate 125 g/ha, Postemergence",1
same,"Plant response rating, Velvetleaf","[9]; Rate 125 g/ha, Preemergence",0
same,"Plant response rating, Velvetleaf","[9]; Rate 250 g/ha, Postemergence",1
same,"Plant response rating, Velvetleaf",[9]; [20],1
same,"Plant response rating, Corn","corn (Zea mays); Rate 62 g/ha, Postemergence",1
same,Corn plant response rating,corn (Zea mays); Rate 62 g/ha,0
same,"Plant response rating, Corn","corn (Zea mays); Rate 125 g/ha, Postemergence",1
same,Corn plant response rating,corn (Zea mays); Rate 125 g/ha,0
same,"Plant response rating, Corn","corn (Zea mays); Rate 250 g/ha, Postemergence",1
same,"Plant response rating, Corn",corn (Zea mays); [20],0
same,"Plant response rating, Blackgrass","[10]; Rate 62 g/ha, Postemergence",1
same,Blackgrass plant response rating,[10]; Rate 62 g/ha,0
same,"Plant response rating, Blackgrass","[10]; Rate 125 g/ha, Postemergence",1
same,Blackgrass plant response rating,[10]; Rate 125 g/ha,0
same,"Plant response rating, Blackgrass","[10]; Rate 250 g/ha, Postemergence",1
same,"Plant response rating, Blackgrass",[10]; [20],0
same,"Plant response rating, B. signalgrass","[11]; Rate 62 g/ha, Postemergence",1
same,B. signalgrass plant response rating,[11]; Rate 62 g/ha,0
same,"Plant response rating, B. signalgrass","[11]; Rate 125 g/ha, Postemergence",1
same,B. signalgrass plant response rating,[11]; Rate 125 g/ha,0
same,"Plant response rating, B. signalgrass","[11]; Rate 250 g/ha, Postemergence",1
same,"Plant response rating, B. signalgrass","[11]; Rate 250 g/ha, Postemergence as printed in head r139 (second section for compounds 26-50)",0
same,"Plant response rating, Cocklebur","[12]; Rate 62 g/ha, Postemergence",2
same,Cocklebur plant response rating,[12]; Rate 62 g/ha,0
same,"Plant response rating, Cocklebur","[12]; Rate 125 g/ha, Postemergence",2
same,Cocklebur plant response rating,[12]; Rate 125 g/ha,0
same,"Plant response rating, Cocklebur","[12]; Rate 250 g/ha, Postemergence",2
same,"Plant response rating, Cocklebur",[12]; [20],0
same,"Plant response rating, Crabgrass","[13]; Rate 62 g/ha, Postemergence",2
same,Crabgrass plant response rating,[13]; Rate 62 g/ha,0
same,"Plant response rating, Crabgrass","[13]; Rate 125 g/ha, Postemergence",2
same,Crabgrass plant response rating,[13]; Rate 125 g/ha,1
same,"Plant response rating, Crabgrass","[13]; Rate 250 g/ha, Postemergence",2
same,"Plant response rating, Crabgrass",[13]; [20],1
same,"Plant response rating, Soybean","soybean (Glycine max); Rate 62 g/ha, Postemergence",1
same,Soybean plant response rating,"soybean (Glycine max); Rate 62 g/ha, Preemergence",0
same,Soybean plant response rating,"soybean (Glycine max); Rate 125 g/ha, Postemergence",2
same,"Plant response rating, Soybean","soybean (Glycine max); Rate 125 g/ha, Preemergence",0
same,"Plant response rating, Soybean","soybean (Glycine max); Rate 250 g/ha, Postemergence",2
same,"Plant response rating, Soybean",soybean (Glycine max); [20],0
same,Wheat plant response rating,"[14]; Rate 62 g/ha, Postemergence",0
same,Wheat plant response rating,"[14]; Rate 62 g/ha, Preemergence",0
same,Wheat plant response rating,"[14]; Rate 125 g/ha, Postemergence",0
same,"Plant response rating, Wheat","[14]; Rate 125 g/ha, Preemergence",0
same,"Plant response rating, Wheat","[14]; Rate 250 g/ha, Postemergence",1
same,"Plant response rating, Wheat",[14]; [20],0
same,Wild oats plant response rating,"wild oat (Avena fatua); Rate 62 g/ha, Postemergence",1
same,Wild oats plant response rating,"wild oat (Avena fatua); Rate 62 g/ha, Preemergence",0
same,Wild oats plant response rating,"wild oat (Avena fatua); Rate 125 g/ha, Postemergence",1
same,"Plant response rating, Wild oats","wild oat (Avena fatua); Rate 125 g/ha, Preemergence",0
same,"Plant response rating, Wild oats","wild oat (Avena fatua); Rate 250 g/ha, Postemergence",2
same,"Plant response rating, Wild oats",wild oat (Avena fatua); [20],1
same,"Plant response rating, Rape","rape (Brassica napus); Rate 62 g/ha, Postemergence",6
same,Rape plant response rating,"rape (Brassica napus); Rate 62 g/ha, Preemergence",0
same,Rape plant response rating,"rape (Brassica napus); Rate 125 g/ha, Postemergence",6
same,Rape plant response rating,"rape (Brassica napus); Rate 125 g/ha, Preemergence",0
same,"Plant response rating, Rape","rape (Brassica napus); Rate 250 g/ha, Postemergence",9
same,"Plant response rating, Rape",rape (Brassica napus); [20],0
same,"Plant response rating, Giant foxtail","[15]; Rate 62 g/ha, Postemergence",1
same,Giant foxtail plant response rating,"[15]; Rate 62 g/ha, Preemergence",0
same,Giant foxtail plant response rating,"[15]; Rate 125 g/ha, Postemergence",1
same,Giant foxtail plant response rating,"[15]; Rate 125 g/ha, Preemergence",0
same,"Plant response rating, Giant foxtail","[15]; Rate 250 g/ha, Postemergence",1
same,"Plant response rating, Giant foxtail",[15]; [20],1
